Results taken from publication PMC6905855, “Agonist-specific voltage-dependent gating of lysosomal two-pore Na^+ channels” (eLife, 2019).
Where “and” joins values, the source holds several entries; their conditions need not be identical. Identical values can stand only once.

Tests used:
[1] = biological target: T1, surface-expressing mutant TPC2 channel (TPC2^LL/AA) in HEK293 cells (Homo sapiens, UniProt Q8NHX9, L11A/L12A); test: Whole-cell recordings of ITPC2-LL/AA; format: cell-based
T1 construct: expressed in transfected cells; host or cells: HEK293
Method in brief: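 HEK293 cells transiently expressing EGFP-tagged human TPC2 L11A/L12A, a plasma-membrane-targeted mutant, recorded 24–36 h post-transfection. Whole-cell patch clamp with fast perfusion of bath solutions; currents digitized at 10 kHz and filtered at 2 kHz.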

[2] = biological target: T2, hTPC2 (Homo sapiens, UniProt Q8NHX9); test: Whole-endolysosome recordings of ITPC2; format: biochemical; conditions: for inactivation of ITPC2, I500ms / I10ms: @-120mV; for time course of LyNa-VA1.2-induced ITPC2: EL
T2 construct: expressed in transfected cells; host or cells: Cos1 and HEK293

[3] = biological target: T3, hTPC1 (Homo sapiens, UniProt Q9ULQ1); test: Whole-endolysosome recordings of ITPC1; format: biochemical
T3 construct: expressed in transfected cells; host or cells: Cos1
Protocol: It was therefore of interest to explore whether TCAs/LyNa-VAs could also act on TPC1. To investigate this, we used two different voltage paradigms. […] Second, we used a tail current paradigm to measure the amplitude of the peak inward current at −120 mV following prolonged steps to various potentials (Figure 4E).
Figure 4. […] HP = 0 mV. […] Dotted lines in A indicate where the currents were measured. […] Data are presented as Mean ± S.E.M (n = 3 patches). […] (G) Normalized I-V plots of basal voltage-dependent currents in WT TPC1- and TPC1^R540I-transfected cells. […] Figure 4—source data 1. […] Figure 4—figure supplement 1. […] (A) A voltage protocol that elicited ITPC1 tail currents as shown in Figure 4E (from −140 to 100 mV with a ∆V = 20 mV, 1 s with a 10 s inter-step interval). Arrows indicate where tail currents were measured. (B) A voltage protocol that elicited ITPC1 tail currents as shown in C. […] HP = 0 mV. […] (A) Basal whole-endolysosome ITPC1 (left) or ITPC1-R540I (right) was elicited by voltage steps (−140 to +100 mV with ΔV = 20 mV) in the absence of PI(3,5)P2 in TPC1-transfected Cos1 cells ([She et al., 2019]). Tail currents were elicited at −120 mV. (B) The effects of PI(3,5)P2 (0.3 µM) on ITPC1 (left) and ITPC1-R540I (right) step currents. […] A preconditioning voltage (+80 mV, 0.1 s) was applied before voltage steps starting from −140 to 100 mV (0.5 s, ∆V = 20 mV).
All TPC1 and TPC2 mutants were generated with a site-directed mutagenesis kit (Qiagen) using EGFP- human TPC1 and TPC2 as the templates. All constructs were confirmed by DNA sequencing.
Whole-endolysosome recordings were performed on manually isolated enlarged endolysosomes ([Wang et al., 2012]). In brief, a patch pipette was pressed against a cell and quickly pulled away to slice the cell membrane. Enlarged endolysosomes were released into a dish and identified by monitoring EGFP-TPC1/2 or the mCherry-TPC1/2 fluorescence. After formation of a gigaseal between the patch pipette and the enlarged endolysosome, capacitance transients were compensated. Voltage steps of several hundred mVs with millisecond duration were then applied to break into the vacuolar membrane. The whole-endolysosome configuration was verified by the re-appearance of capacitance transients after break-in.
Data were collected using an Axopatch 200A patch clamp amplifier, Digidata 1440, and pClamp 10.2 software (Axon Instruments). Whole-endolysosome currents were digitized at 10 kHz and filtered at 2 kHz. All experiments were conducted at room temperature (21–23°C), and all recordings were analyzed with pClamp 10.2, and Origin 8.0 (OriginLab, Northampton, MA). The permeability to cations (relative to PNa) was estimated based on following equations ([Lewis, 1979]) and Erev measurement under bi-ionic conditions:(1) PX/PNa=γNa/γX{[Na^+]Luminal/[X^+]Cytoplasmic}{exp([…])} (2) PCa/PNa=γNa/γCa{[Na^+]Cytoplasmic/[4[Ca^2+]Luminal}{exp(ErevF/RT)}{1+exp(ErevF/RT)} where R, T, F, Erev, and γ are, respectively, the gas constant, absolute temperature, Faraday constant, reversal potential, and activity coefficient. The liquid junction potentials were measured and corrected as described ([Neher, 1992]).

[4] = whole cell, 200 µM, individual recordings
[5] = whole-cell, 200 µM, mean ± S.E.M
[6] = lysosome, 200 µM, individual recordings
[7] = whole-endolysosome, 200 µM, mean ± S.E.M

T1 sequence (Q8NHX9 whole entry L11A/L12A): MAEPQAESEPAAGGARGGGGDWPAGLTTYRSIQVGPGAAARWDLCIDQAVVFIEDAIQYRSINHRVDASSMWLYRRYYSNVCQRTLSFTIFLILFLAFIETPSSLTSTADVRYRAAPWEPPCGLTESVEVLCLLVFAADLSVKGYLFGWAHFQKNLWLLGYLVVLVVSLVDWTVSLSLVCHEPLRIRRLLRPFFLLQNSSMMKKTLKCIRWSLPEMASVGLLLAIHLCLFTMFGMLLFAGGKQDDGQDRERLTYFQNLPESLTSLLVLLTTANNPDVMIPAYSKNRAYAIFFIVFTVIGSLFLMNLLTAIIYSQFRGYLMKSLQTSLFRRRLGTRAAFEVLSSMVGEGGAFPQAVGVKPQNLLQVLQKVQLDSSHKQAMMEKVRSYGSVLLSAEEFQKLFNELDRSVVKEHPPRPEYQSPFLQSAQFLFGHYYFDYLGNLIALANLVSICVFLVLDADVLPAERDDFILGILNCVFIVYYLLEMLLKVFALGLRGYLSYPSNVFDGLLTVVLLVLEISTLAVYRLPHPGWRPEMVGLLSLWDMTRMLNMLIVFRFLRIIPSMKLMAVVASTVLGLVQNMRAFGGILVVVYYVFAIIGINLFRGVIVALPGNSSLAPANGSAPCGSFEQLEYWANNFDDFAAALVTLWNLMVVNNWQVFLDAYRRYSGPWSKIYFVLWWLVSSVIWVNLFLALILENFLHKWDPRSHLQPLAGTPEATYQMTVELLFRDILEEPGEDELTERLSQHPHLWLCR
T2 sequence (Q8NHX9 whole entry): as the sequence (Q8NHX9 whole entry L11A/L12A) above, with A11L, A12L counted along it

CNCCCN1c2ccccc2CCc2ccccc21 [LyNa-VA1.2, Desipramine]
Latency of induced ITPC2 [1, 4]: 14 s and 12 s and 20 s | Time constant (τ) of induced ITPC2 [1, 4]: 55 s and 48 s and 30.1 s and 39.1 s | EC50 ([1]; whole-cell recordings at −140 mV, TPC2^LL/AA-transfected HEK293 cells, read-out: EC50): 87 ± 8 µM | latency of TPC2 activation [1, 5]: 15 ± 2 s | time constant (τ) of TPC2 activation [1, 5]: 43 ± 5 s | inactivation of ITPC2, I500ms / I10ms ([2]; PI(3,5)P2 0.3 µM, LyNa-VA1.2 100 µM, LyNA1 300 µM, individual tests): 0.6243 and 0.7434 and 0.4902 and 0.5999 and 0.6758 | inactivation of ITPC2, I500ms / I10ms ([2]; mean): 0.6267 | time course of LyNa-VA1.2-induced ITPC2 ([2]; time 0 s): -0.016 | time course of LyNa-VA1.2-induced ITPC2 ([2]; time 2 s): -0.01474 | time course of LyNa-VA1.2-induced ITPC2 ([2]; time 4 s): -0.01598 | time course of LyNa-VA1.2-induced ITPC2 ([2]; time 6 s): -0.00988 | time course of LyNa-VA1.2-induced ITPC2 ([2]; time 8 s): -0.00688 | time course of LyNa-VA1.2-induced ITPC2 ([2]; time 10 s): -0.02054 | time course of LyNa-VA1.2-induced ITPC2 ([2]; time 12 s): -0.02108 | time course of LyNa-VA1.2-induced ITPC2 ([2]; time 14 s): -0.1089 | time course of LyNa-VA1.2-induced ITPC2 ([2]; time 16 s): -0.1984 | time course of LyNa-VA1.2-induced ITPC2 ([2]; time 18 s): -0.2507 | time course of LyNa-VA1.2-induced ITPC2 ([2]; time 20 s): -0.3079 | time course of LyNa-VA1.2-induced ITPC2 ([2]; time 22 s): -0.5611 | time course of LyNa-VA1.2-induced ITPC2 ([2]; time 24 s): -0.7092 | time course of LyNa-VA1.2-induced ITPC2 ([2]; time 26 s): -0.8241 | time course of LyNa-VA1.2-induced ITPC2 ([2]; time 28 s): -0.8579 | time course of LyNa-VA1.2-induced ITPC2 ([2]; time 30 s): -0.8577 | time course of LyNa-VA1.2-induced ITPC2 ([2]; time 32 s): -0.9123 | time course of LyNa-VA1.2-induced ITPC2 ([2]; time 34 s): -1 | time course of LyNa-VA1.2-induced ITPC2 ([2]; time 36 s): -0.9719 | time course of LyNa-VA1.2-induced ITPC2 ([2]; time 38 s): -0.9923 | time course of LyNa-VA1.2-induced ITPC2 ([2]; time 40 s): -0.9868 | time course of LyNa-VA1.2-induced ITPC2 ([2]; time 42 s): -0.989 | Latency of induced ITPC2 [2, 6]: 6 s and 8 s and 10 s | Time constant (τ) of induced ITPC2 [2, 6]: 6.38 s and 6 s and 5.4 s | ITPC2 ([2]; whole endolysosome recordings with 100 µM of LyNa-VAs at −120 mV): 1120 ± 94 pA | latency of TPC2 activation [2, 7]: 7 ± 1 s | time constant (τ) of TPC2 activation [2, 7]: 8 ± 2 s | Dose-dependent activation of TPC1 (normalized ITPC1) ([3]; 3 µM, individual patches): 0.01236 and 0.1007 and 0.1129 | Dose-dependent activation of TPC1 (normalized ITPC1) ([3]; 3 µM, mean): 0.07532 | Dose-dependent activation of TPC1 (normalized ITPC1) ([3]; 10 µM, individual patches): 0.3905 and 0.6013 and 0.2982 | Dose-dependent activation of TPC1 (normalized ITPC1) ([3]; 10 µM, mean): 0.43 | Dose-dependent activation of TPC1 (normalized ITPC1) ([3]; 30 µM, individual patches): 0.9756 and 1 and 0.7567 | Dose-dependent activation of TPC1 (normalized ITPC1) ([3]; 30 µM, mean): 0.9108 | Dose-dependent activation of TPC1 (normalized ITPC1) ([3]; 100 µM, individual patches): 1 (2×) and 0.518 | Dose-dependent activation of TPC1 (normalized ITPC1) ([3]; 100 µM, mean): 0.8393 | Dose-dependent activation of TPC1 (normalized ITPC1) ([3]; 300 µM, individual patches): 0.9299 and 0.7273 | Dose-dependent activation of TPC1 (normalized ITPC1) ([3]; 300 µM, mean): 0.8286 | EC50 ([3]; whole-endolysosome, n = 3 patches, read-out: EC50, activation of TPC1): 10 ± 1 µM
